Experimental data published in article PMC11648915, “Identification and development of TRPM4 antagonists to counteract neuronal excitotoxicity” (iScience, 2024).
Like-named read-outs stand apart in the source and are kept apart here.

Tests used:
human TRPM4 = human TRPM4 (Homo sapiens, UniProt Q8TD43); assay: QPatch automated patch clamp on TRPM4-expressing HEK293 cells; type: cell-based; conditions: hsTRPM4-expressing HEK293 cells
Method: QPatchHTX, an automated electrophysiology platform, was used in single hole mode. One day before use human TRPM4- or TRPM5-expressing HEK293 cells were seeded in a T75 flask at a density of 53k cells per cm^2 and at passages < 23. […] The extracellular solution was (in mM): CaCl2 (7), MgCl2 (2), KCl (5), HEPES (10), NaCl (70), NMDG (70); pH 7.4 with NaOH. The intracellular solution was (in mM): HEPES (10), NMDG (100), NaCl (50), EGTA (20), MgCl2 (1), CaCl2 (21); pH 7.2 with HCl. […] This protocol was repeated every 7 seconds. […] FFA was used as reference compound and applied cumulatively with each concentration incubating at a minimum of 20 voltage protocol runs (140 seconds) with the current after addition of FFA being calculated as full block. […] Each compound was measured at least 3 time independently.

CYP3A4 = biological target: T1, CYP3A4 (Homo sapiens, UniProt P08684); assay: CYP inhibition assay 3A4; type: in vitro ADME
T1 construct: purchased BD Gentest
T1 sequence (P08684 whole entry): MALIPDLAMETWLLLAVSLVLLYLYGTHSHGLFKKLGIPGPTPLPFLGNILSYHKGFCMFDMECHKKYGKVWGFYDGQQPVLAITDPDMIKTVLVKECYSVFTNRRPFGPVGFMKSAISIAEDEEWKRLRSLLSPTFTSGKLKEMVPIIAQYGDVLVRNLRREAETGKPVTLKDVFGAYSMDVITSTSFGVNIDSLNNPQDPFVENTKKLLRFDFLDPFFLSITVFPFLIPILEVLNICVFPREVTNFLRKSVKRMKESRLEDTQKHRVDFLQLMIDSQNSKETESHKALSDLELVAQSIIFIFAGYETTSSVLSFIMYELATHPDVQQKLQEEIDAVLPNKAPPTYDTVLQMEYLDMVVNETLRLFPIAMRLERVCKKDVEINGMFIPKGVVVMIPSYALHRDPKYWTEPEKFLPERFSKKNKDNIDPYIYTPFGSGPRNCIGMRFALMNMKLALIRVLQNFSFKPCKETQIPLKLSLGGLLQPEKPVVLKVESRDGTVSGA
Method: (§1) The half-maximal inhibitory concentration (IC50) for cytochrome P450 (CYP) enzymes was determined using an in vitro enzyme inhibition assay. Recombinant CYP enzymes or human liver microsomes from BD Gentest, in 0.1 M phosphate buffer pH 7.4, containing native CYP enzymes were incubated with the test compound at various concentrations (1, 3, 10 and 30 μM) and containing 0.5% DMSO and 0.1% BSA final concentrations. 1 mM of NADPH cofactor was added and the reaction was started by a rapid increase of temperature until 37°C.

[1] = system: primary mouse neuronal cultures; assay: Glutamate-induced excitotoxicity assay (RealTime-Glo viability); type: cell-based; conditions: 5 μM, primary mouse neuronal cultures
Method: To evaluate the in vitro efficacy of our developed compounds, we employed primary mouse neuronal cultures (PNCs) and conducted glutamate-induced excitotoxicity assays. Cultures were pre-treated with respective Series 1 and Series 3 compounds before glutamate exposure, and neuronal viability was assessed 15 h post-stimulation with glutamate.
Figure 3 Neuroprotective in vitro evaluation and in vivo pharmacokinetics (A) In vitro evaluation of compound activity on glutamate-induced excitotoxicity in mature primary neuronal cultures. Neuronal cultures were treated with 5 μM of the specified compound or vehicle control 5 h prior to glutamate stimulation, assessing compound rescue activity and toxicity relative to minimal (Vehicle +0 μM Glu) and maximal (Vehicle +50 μM Glu) excitotoxicity. Time course of a representative compound with virtual endpoint at 15 h post stimulation and assay window definition (left). Toxicity of compound treated cultures with and without glutamate stimulation (right). Data are represented as mean and 95% confidence interval; n ≥ 4; ∗p < 0.05, ∗∗p < 0.01, ∗∗∗p < 0.001; One-sample Wilcoxon signed-rank test. […] Mitochondrial membrane potential was measured by the mean fluorescence intensity of TMRE normalized to MitoTracker. Data are represented as mean ± SEM; n = 5; paired t-test. (C) In vivo pharmacokinetics of four selected compounds. Time course of compound concentration in the brain, heart, and plasma after a single dose via intraperitoneal (i.p.) or intravenous (i.v.) application. Data are represented as mean ± SEM. Half-life estimates by non-compartmental analysis are shown as vertical line and IC50 value as dashed horizontal line. (D) Compound concentration in the brain relative to respective IC50 concentrations after a single dose via intra-peritoneal or intra-venous routes. Also see Figure S6.
Excitotoxicity assays were performed using primary mouse neuronal cultures between 14 and 17 days in vitro (DIV). Cell viability was measured using RealTime-Glo MT Cell Viability Assay (Promega, catalog no. G9711) according to the manufacture protocol. Compounds were co-administered with RealTime-Glo reagents, and luciferase measurements were conducted using the Tecan-Spark M10 microplate reader with environmental control set to 37°C and 5% CO2. Neuronal cultures were stimulated with either glutamate or vehicle five hours after compound application and monitored for an additional 20 hours. To adjust for inter-well variability, arbitrary light units were normalized to a steady signal prior to glutamate addition for each well. Toxicity was calculated relative to the minimal cell viability at 15 hours post glutamate stimulation and cell viability of the PBS vehicle control.

CYP 1A2 = biological target: T2, CYP 1A2 (Homo sapiens, UniProt P05177); assay: CYP inhibition assay 1A2; type: in vitro ADME
T2 construct: purchased BD Gentest
T2 sequence (P05177 1-516): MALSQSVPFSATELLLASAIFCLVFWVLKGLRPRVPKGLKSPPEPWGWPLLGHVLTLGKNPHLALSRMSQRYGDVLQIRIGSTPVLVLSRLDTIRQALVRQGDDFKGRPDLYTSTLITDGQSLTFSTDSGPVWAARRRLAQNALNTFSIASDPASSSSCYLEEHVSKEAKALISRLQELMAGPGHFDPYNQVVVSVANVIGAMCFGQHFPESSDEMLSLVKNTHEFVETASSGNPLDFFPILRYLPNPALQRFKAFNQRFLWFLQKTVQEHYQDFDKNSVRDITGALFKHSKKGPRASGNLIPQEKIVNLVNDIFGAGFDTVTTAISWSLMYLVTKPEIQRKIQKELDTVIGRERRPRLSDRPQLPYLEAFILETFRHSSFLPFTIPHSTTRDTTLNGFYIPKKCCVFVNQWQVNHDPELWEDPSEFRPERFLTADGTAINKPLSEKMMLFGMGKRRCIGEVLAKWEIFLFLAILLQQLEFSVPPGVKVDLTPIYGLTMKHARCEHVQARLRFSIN
Method: as §1

[2] = Caco-2 permeability assay; type: in vitro ADME; conditions: human, direction not given
Method: Caco-2 permeability was evaluated using a cell-based assay with Caco-2 cells cultured on permeable membrane inserts. The test compound was added at 10 μM to the apical (donor) compartment, and samples were collected from the basolateral (receiver) compartment at 120 min. The test compound was also added at 10 μM to the basolateral (donor) compartment, and samples were collected from the apical (receiver) compartment at 120 min. The amount of the compound in both compartments was measured using mass spectrometry (LC-MS/MS). The permeability coefficient (Papp, nm/s) apical to basolateral and basolateral to apical, and an efflux ratio were calculated.

[3] = TDI, read-out: Cyp IC50 TDI 3A4

Sequence of human TRPM4 (Q8TD43 whole entry): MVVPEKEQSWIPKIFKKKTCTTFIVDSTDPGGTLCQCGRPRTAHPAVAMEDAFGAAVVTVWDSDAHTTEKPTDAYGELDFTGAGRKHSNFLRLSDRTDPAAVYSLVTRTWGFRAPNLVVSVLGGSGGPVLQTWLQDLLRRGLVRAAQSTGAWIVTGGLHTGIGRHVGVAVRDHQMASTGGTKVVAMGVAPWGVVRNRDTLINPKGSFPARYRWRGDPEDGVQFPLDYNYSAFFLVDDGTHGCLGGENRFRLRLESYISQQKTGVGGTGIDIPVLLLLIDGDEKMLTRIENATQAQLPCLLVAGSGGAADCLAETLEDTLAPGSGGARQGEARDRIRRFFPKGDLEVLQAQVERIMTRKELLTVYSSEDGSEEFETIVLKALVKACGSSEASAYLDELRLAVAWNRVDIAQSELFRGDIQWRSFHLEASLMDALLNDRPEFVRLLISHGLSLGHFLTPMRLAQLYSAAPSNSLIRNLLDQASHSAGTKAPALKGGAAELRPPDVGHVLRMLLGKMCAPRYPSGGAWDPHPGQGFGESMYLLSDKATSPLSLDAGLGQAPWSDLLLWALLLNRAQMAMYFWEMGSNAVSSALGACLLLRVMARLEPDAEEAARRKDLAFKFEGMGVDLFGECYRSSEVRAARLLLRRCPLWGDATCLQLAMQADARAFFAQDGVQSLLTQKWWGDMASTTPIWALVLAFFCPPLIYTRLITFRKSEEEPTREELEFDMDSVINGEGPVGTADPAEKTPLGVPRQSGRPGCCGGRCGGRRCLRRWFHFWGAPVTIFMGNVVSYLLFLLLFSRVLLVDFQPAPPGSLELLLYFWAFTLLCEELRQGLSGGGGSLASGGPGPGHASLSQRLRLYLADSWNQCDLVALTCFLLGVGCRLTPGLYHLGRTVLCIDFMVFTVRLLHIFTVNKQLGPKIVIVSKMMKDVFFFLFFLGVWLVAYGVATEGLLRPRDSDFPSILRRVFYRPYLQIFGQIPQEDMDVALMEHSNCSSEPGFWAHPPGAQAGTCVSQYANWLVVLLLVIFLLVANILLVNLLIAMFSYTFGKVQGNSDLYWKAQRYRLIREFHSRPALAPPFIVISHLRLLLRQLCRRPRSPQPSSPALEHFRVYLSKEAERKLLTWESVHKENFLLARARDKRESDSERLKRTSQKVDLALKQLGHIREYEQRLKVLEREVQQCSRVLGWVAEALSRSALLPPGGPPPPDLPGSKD

SMILES | IC50 (CYP3A4; human, pH 7.4) | Papp at 120 min, 10 μM ([2]; read-out: Caco-2 perm.) | Papp at 120 min, 10 μM ([2]; heading: Caco-2 perm.) | IC50 (human TRPM4) | IC50 (CYP3A4; [3]) | IC50 (CYP3A4; read-out: Cyp IC50 3A4) | Compound toxicity in neuronal cultures [1] | IC50 (CYP 1A2)
Fc1cccc(-c2ccccc2NCc2nc3ccccc3o2)c1 [CMP343] | – | – | – | 90 nM | > 50000 nM | > 50000 nM | – | –
Fc1ccccc1-c1ccccc1NCc1nc2ccccc2o1 [CMP353] | – | – | – | 80 nM | – | > 29600 nM | observed toxicity | 1000 nM
c1csc(-c2ccccc2NCc2nc3ccccc3o2)c1 [CMP355] | – | – | – | 590 nM | > 50000 nM | > 50000 nM | observed toxicity | 1300 nM
Cc1ccsc1-c1ccccc1NCc1nc2ccccc2o1 [CMP369] | > 50000 nM | 52 ×10⁻⁶ cm/s | – | – | – | – | observed toxicity | –
Nc1ccccc1-c1ccccc1NCc1nc2ccccc2o1 [CMP457] | – | – | 21 ×10⁻⁶ cm/s | – | – | – | observed toxicity | –
